Reference: patent publication US20120122225A1, “CARRIER PEPTIDE FRAGMENT AND USE THEREOF” (TOAGOSEI CO. LTD., priority 2009, published 2012)
* marks the point of attachment. FITC = O=C1OC2(c3ccc(O)cc3Oc3cc(O)ccc32)c2ccc(NC(=S)*)cc21; Ahx = NCCCCCC(=O)O

How the values were obtained:
[1] = system: Human neonate foreskin fibroblasts (ATCC Catalogue No. CRL-2097); assay: Evaluation of cell membrane permeability function (1), confocal laser scanning microscopy of fluorescently labeled peptide; type: cell-based; conditions: 1 μM sample
Description: Human neonate foreskin fibroblasts (ATCC Catalogue No. CRL-2097) were used as the eukaryotic cells, and the cell membrane permeability capability of the two samples (constructs for transferring a foreign substance) obtained in Example 1 above was investigated.
More specifically, the abovementioned fibroblasts were cultured in a liquid mixture of 90% Eagle MEM culture medium (containing 0.1% nonessential amino acids, 2 mM L-glutamine, 1 mM sodium pyruvate, and 1.5 g/L sodium hydrogen carbonate) and 10% serum (FBS) as the culture medium.
The cultured cells were trypsinized for 1 min at 37° C. with a 0.25% trypsin solution. After the abovementioned treatment, the trypsin was deactivated with FBS-containing medium, and a cell suspension (test sample for foreign substance transfer) was prepared by adjusting the cell concentration to approximately 5×10^4 cells/mL with the culture medium.
Next, 0.5 mL of the abovementioned cell suspension was placed in a designated cell culturing container (culture slide with a surface coating of 0.1% gelatin), and the cells were incubated overnight at 37° C. in a 5% CO2 atmosphere. After incubation the medium was replaced with fresh culture medium, and the 1 mM sample solutions of each of the samples prepared in abovementioned Example 1 were added to a cell culture container so that the final sample concentration (peptide concentration) would be 1 μM. In this case 0.5 μL of sample solution was added to the container. Then the samples were incubated at 37° C. for either 1 or 4 hours in a 5% CO2 atmosphere.
The cells after 1 hour of culture and the cells after 4 hours of culture were each rinsed in PBS (phosphate buffered saline) and fixed with methanol (on ice for 10 min).
Next the methanol-fixed samples (cells) were mounted using Prolong® Gold Antifade Reagent (Invitrogen) that contains the nuclear stain DAPI (4′,6-diamidino-2-phenylindole). Then the localization within the cells of the peptide bonded to the fluorescent dye (i.e., fluorescently labeled peptide) in each test sample (i.e., the abovementioned mounted test samples after methanol fixation) was verified using a confocal scanning laser microscope.
FIGS. 1 and 2 are micrographs showing the results when abovementioned Sample No. 1 was added to the liquid suspension of cells.

[2] = system: human iPS cells (cell line 201B2-082008KU); assay: Evaluation of cell membrane permeability function (2), confocal laser scanning microscopy of fluorescently labeled peptide; type: cell-based; conditions: 1 μM sample; for penetration of the cell membrane from outside the cell / transfer into the cells: 1 hour culture (FIGS. 3, 4), methanol fixed
Source text: The target cells for transferring the foreign substance were changed from human neonate foreskin fibroblasts to human iPS cells (human induced pluripotent stem cells), and the cell membrane permeability capability of the two samples (constructs for transferring a foreign substance) obtained in Example 1 above was investigated. It should also be noted that the iPS cells (cell line 201B2-082008KU) and the mouse embryonic fibroblast feeder cells (cell line SNL 76/7, hereinafter “MEF”) used in this example were provided by the Yamanaka Research Laboratory of the Institute for Frontier Medical Sciences, Kyoto University (professor Shinya Yamanaka).
First the obtained MEF were inactivated by a mitomycin C treatment (3 hours) and then trypsinized in a 0.25% trypsin solution containing 1 mM EDTA. After the above treatment, the trypsin was deactivated with culture medium containing FBS, and the MEF were adjusted to a suitable cell density using D-MEM medium (Dulbecco's Modified Eagle Medium: Gibco) containing MEF culture medium (7% FBS: Gibco), 2 mM L-glutamine (Gibco), 50 units/mL penicillin, and 50 μg/mL streptomycin (Gibco), and the abovementioned MEF were seeded onto a culture container (in the form of a culture slide or plate) with a surface coating of 0.1% gelatin. In this case, the MEF were seeded so that the cell density would be approximately 1.25×10^5 cells/mL. Next, the abovementioned cell culture containers were incubated overnight at 37° C. in a 5% CO2 atmosphere.
Thereafter, the feeder cells were prepared by removing the MEF culture medium and rinsing with PBS.
Separately, CTK solution (0.25% trypsin solution containing 0.1 mg/mL collagenase IV (Gibco), 1 mM calcium chloride, and 20% KSR (KnockOut® Serum Replacement)) was added to the obtained iPS cell line, the MEF were peeled therefrom, and the cells were rinsed with PBS.
Next, 1 mL hESC culture medium (i.e., human ES cell medium, in this case, DMEM/F12 culture medium (Gibco) containing 20% KSR (Gibco), 2 mM L-glutamine (Gibco), 0.1% nonessential amino acids (Gibco), 0.1 mM 2-mercaptoethanol (Gibco), 50 units/mL penicillin, and 50 μg/mL streptomycin (Invitrogen, 4 ng/mL bFGF (basic fibroblast growth factor)) was added, the iPS cells were peeled off using a cell scraper, and the colony was broken apart by gentle pipetting.
A suspension of iPS cells obtained in this manner was seeded onto the feeder cells in the culture containers that had been prepared as described above. Then, the abovementioned hESC medium was added, and the cell culture containers were incubated overnight at 37° C. in a 5% CO2 atmosphere.
After incubation overnight, the culture medium was removed from the culture containers, and the abovementioned hESC medium to which one of the 1 mM sample solutions prepared in abovementioned Example 1 had been added to make a final sample concentration (pipetted concentration) of 1 μM was added to the culture containers. Then the samples were incubated at 37° C. for either 1 or 4 hours in a 5% CO2 atmosphere.
The cells after 1 hour of culture and cells after 4 hours of culture were each rinsed in PBS (phosphate buffered saline) and fixed with methanol (on ice for 10 min).
Next, the same treatment as in Example 2 was performed, and the localization within the iPS cells of the peptide that was bonded to the fluorescent dye (i.e., fluorescently labeled) was verified using a confocal scanning laser microscope. FIG. 3 is a micrograph showing the results after 1 hour of culture of the cell suspension to which abovementioned Sample No. 1 had been added, and FIG. 4 is a micrograph after 1 hour of culture of the cell suspension to which abovementioned Sample No. 2 had been added.

Substance | cell membrane permeability [1] | translocation into the nucleus (DAPI nuclear staining) ([1]; 1 or 4 hours culture) | penetration of the cell membrane from outside the cell / transfer into the cells ([1]; 1 or 4 hours culture, methanol fixed) | cell membrane permeability [2] | translocation into the nucleus (DAPI nuclear staining) [2] | penetration of the cell membrane from outside the cell / transfer into the cells [2]
(FAM)-WRRQARFK [Sample No. 1] | exhibited excellent cell membrane permeability | had translocated into the nucleus | penetrated the cell membrane from outside the cell rapidly after it was added, and thus was transferred into the cells | exhibited excellent cell membrane permeability | had further translocated into the nucleus | penetrated the cell membrane from outside the cell rapidly after addition and were transferred into the cells
(FITC)-(Acp)-WRRQARFKGTLKERCLQVVRSLVK ({FITC-Ahx}-WRRQARFKGTLKERCLQVVRSLVK-NH2; SMILES CC(C)C[C@H](NC(=O)[C@H](CS)NC(=O)[C@H](CCCNC(=N)N)NC(=O)[C@H](CCC(=O)O)NC(=O)[C@H](CCCCN)NC(=O)[C@H](CC(C)C)NC(=O)[C@@H](NC(=O)CNC(=O)[C@H](CCCCN)NC(=O)[C@H](Cc1ccccc1)NC(=O)[C@H](CCCNC(=N)N)NC(=O)[C@H](C)NC(=O)[C@H](CCC(N)=O)NC(=O)[C@H](CCCNC(=N)N)NC(=O)[C@H](CCCNC(=N)N)NC(=O)[C@H](Cc1c[nH]c2ccccc12)NC(=O)CCCCCNC(=S)Nc1ccc2c(c1)C(=O)OC21c2ccc(O)cc2Oc2cc(O)ccc21)[C@@H](C)O)C(=O)N[C@@H](CCC(N)=O)C(=O)N[C@H](C(=O)N[C@H](C(=O)N[C@@H](CCCNC(=N)N)C(=O)N[C@@H](CO)C(=O)N[C@@H](CC(C)C)C(=O)N[C@H](C(=O)N[C@@H](CCCCN)C(N)=O)C(C)C)C(C)C)C(C)C) [Sample No. 2, FITC bonded via linker Acp (6-aminohexanoic acid) to the N-terminus of Peptide 2; construct for transferring a foreign substance] | exhibited excellent cell membrane permeability | – | – | exhibited excellent cell membrane permeability | had further translocated into the nucleus | penetrated the cell membrane from outside the cell rapidly after addition and were transferred into the cells
